# Experimental data: patent US7919620B2, “Agent for suppressing blood pressure elevation” (Coral Biotech Kabushiki Kaisha, priority 2005, dated 2011)
# Marks after values point to notes of the source that are not given here.
# Columns and labels:
# Type in all cases: in vivo, rat
# [1] = Animal Experiment 1 (Example 1): NaCl, water and feed consumption and body weight of SHRs
# Description: (§1) Seven-week-old male SHRs were divided into 5 groups of 6 to 7 animals. Following 1 week of acclimatization, each group was allowed to feed freely on semi-solid feed for 7 to 8 weeks. The feed given was prepared by adding 40 wt % moisture to powdered feed. To ensure that each SHR would develop hypertension, 1 wt % salt was added to the feed. The animals were allowed to freely drink tap water. Over the course of the test period, each animal was weighed and the feed consumption was measured. Blood pressure was taken from the tail vein every four days between 4 PM and 6 PM. After a 12-hour fasting period, the animals were sacrificed. Serum, liver, and kidney were weighed and subjected to analyses.
# (§2) The sea water added was NaCl-removed deep sea water (DW) or NaCl-removed surface sea water (SW) prepared by dialyzation through an electrodialyzer (Asahi Kasei) until the conductivity of monovalent ions was decreased to 10 mS/cm.
# (§3) The Si concentration in the semi-solid feed containing 40% moisture is defined as the amount of Si contained in 1 kg of the feed.
# [2] = tested on: spontaneously hypertensive rats (SHRs); experiment: Animal Experiment 1 (Example 1): systolic pressure of SHRs given sea water- or Si-added feed; settings: for Systolic pressure of SHRs: mean ± SD
# From the text: In the following examples, spontaneously hypertensive rats (SHRs) were used as experimental animals. The antihypertensive effect of deep sea water was examined by comparison with tap water and surface sea water. […] The samples of the sea water used in the examples were collected by the Deep Seawater Laboratory of Okinawa at a point 3 kilometers off the coast of Kumejima island at depths of 612 m (deep sea water) and 15 m (surface sea water).
# as §1, §2, §3
# [3] = tested on: spontaneously hypertensive rats (SHRs); experiment: Animal Experiment 2 (Example 2): systolic pressure of SHRs given sea water- or Si-added feed; settings: for Systolic pressure of SHRs: mean ± SD
# Description: (§4) Twenty-five 7-week-old male SHRs were divided into 5 groups of 5 animals. Four times as much Si as used in Example 1 was added to the feed given to the rats. Otherwise, the animals were tested under the same conditions as in Example 1. Two types of sea water were added to the powder feed: sea water subjected to NaCl-removing treatment by electrical dialysis and ion-exchanged water. The semi-solid feed containing 1.4 wt % NaCl and 40% moisture was prepared by adding the sea water to powdered feed.
# [4] = Animal Experiment 2 (Example 2): NaCl, water and feed consumption and body weight of SHRs
# Description: as §4
smiles,measurement,setting,value
"O.O.O.O.O.O.O.O.O.O=[Si]([O-])[O-].[Na+].[Na+] [Si, sodium metasilicate nonahydrate]",Body weight,[1]; 8 weeks,185.0 ± 12.2 g
same,"Body weight, % of Control",[1]; 8 weeks,[98.2%]
same,Body weight,[1]; 15 weeks,287.7 ± 14.7 g
same,"Body weight, % of Control",[1]; 15 weeks,[95.7%]
same,Systolic pressure of SHRs,[2]; age 7 W,151.4 ± 9.8 mmHg
same,Systolic pressure of SHRs,[2]; age 8 W,163.6 ± 7.7 mmHg
same,Systolic pressure of SHRs,[2]; age 9 W,165.1 ± 9.2 mmHg
same,Systolic pressure of SHRs,[2]; age 10 W,173.7 ± 12.2 mmHg
same,Systolic pressure of SHRs,[2]; age 11 W,184.4 ± 11.2 mmHg
same,Systolic pressure of SHRs,[2]; age 12 W,188.4 ± 10.7 mmHg
same,Systolic pressure of SHRs,[2]; age 13 W,194.1 ± 10.4 mmHg
same,Systolic pressure of SHRs,[2]; age 14 W,193.8 ± 11.3*^1 mmHg
same,Difference in magnitude of blood pressure elevation vs control group,"[2]; age 14 weeks (week 6 of treatment), p<0.05",about 15 mmHg
same,Systolic pressure of SHRs,[2]; age 15 W,195.2 ± 9.8*^2 mmHg
same,Antihypertensive effect (blood pressure suppression vs control),[2]; end of test period (15 weeks old),approximately 23 mmHg
same,Systolic pressure of SHRs,[3]; age 7 W,157 ± 8 mmHg
same,Systolic pressure of SHRs,[3]; age 8 W,166 ± 12 mmHg
same,Systolic pressure of SHRs,[3]; age 9 W,168 ± 4 mmHg
same,Systolic pressure of SHRs,[3]; age 10 W,167 ± 7 mmHg
same,Systolic pressure of SHRs,[3]; age 11 W,172 ± 7 mmHg
same,Systolic pressure of SHRs,[3]; age 12 W,179 ± 4 mmHg
same,Systolic pressure of SHRs,[3]; age 13 W,179 ± 1*^1 mmHg
same,Systolic pressure of SHRs,[3]; age 14 W,181 ± 3*^1 mmHg
same,Antihypertensive effect (difference in systolic pressure from the control),"[3]; end of test period (14 weeks old), p<0.05",approximately 10 mmHg
same,Body weight,[4]; 8 week,200.3 ± 15.3 g
same,"Body weight, % of Control",[4]; 8 week,[97.6%]
same,Body weight,[4]; 14 week,303.4 ± 22.6 g
same,"Body weight, % of Control",[4]; 14 week,[102.4%]
